Numbers after ± are expanded uncertainties.
What was measured:
[1] = Liquid, Custom Made Vibrating Tube Densimeter
[2] = xn = mol fraction of the nth substance listed; conditions: Liquid, Custom Made Vibrating Tube Densimeter, x1 = 1

C=C1CC[C@H]2C[C@@H]1C2(C)C [(1S,5S)-6,6-dimethyl-2-methylenebicyclo[3.1.1]heptane]
mass density [kg/m3], [1]
Conditions | 283.15 K | 298.15 K | 313.15 K | 328.15 K | 343.15 K | 358.15 K
20000 kPa | 891.3 ± 0.2 | 880.2 ± 0.2 | 869.3 ± 0.2 | 858.2 ± 0.2 | 847.7 ± 0.2 | 837 ± 0.2
25000 kPa | 894.2 ± 0.2 | 883.3 ± 0.2 | 872.6 ± 0.2 | 861.7 ± 0.2 | 851.4 ± 0.2 | 840.9 ± 0.2
30000 kPa | 897 ± 0.2 | 886.3 ± 0.2 | 875.7 ± 0.2 | 865.2 ± 0.2 | 855 ± 0.2 | 844.8 ± 0.2
35000 kPa | 899.9 ± 0.2 | 889.3 ± 0.2 | 878.8 ± 0.2 | 868.7 ± 0.2 | 858.6 ± 0.2 | 848.7 ± 0.2
40000 kPa | 902.6 ± 0.2 | 892.2 ± 0.2 | 882 ± 0.2 | 872.2 ± 0.2 | 862.1 ± 0.2 | 852.6 ± 0.2

C=C(C)[C@H]1CC=C(C)CC1 [(R)-1-methyl-4-(1-methylethenyl)cyclohexene]
mass density [kg/m3], [1]
Conditions | 283.15 K | 298.15 K | 313.15 K | 328.15 K | 343.15 K | 358.15 K
20000 kPa | 862 ± 0.8 | 851.5 ± 0.8 | 841 ± 0.7 | 830.5 ± 0.7 | 820.1 ± 0.7 | 810.2 ± 0.7
25000 kPa | 864.9 ± 0.8 | 854.5 ± 0.8 | 844.2 ± 0.7 | 833.8 ± 0.7 | 823.7 ± 0.7 | 813.9 ± 0.7
30000 kPa | 867.7 ± 0.8 | 857.6 ± 0.8 | 847.2 ± 0.8 | 837.2 ± 0.7 | 827.3 ± 0.7 | 817.6 ± 0.7
35000 kPa | 870.4 ± 0.8 | 860.9 ± 0.8 | 850.3 ± 0.8 | 840.4 ± 0.7 | 831.1 ± 0.7 | 821.3 ± 0.7
40000 kPa | 873.3 ± 0.8 | 863.4 ± 0.8 | 853.3 ± 0.8 | 843.8 ± 0.7 | 834.6 ± 0.7 | 824.8 ± 0.7

C=C(C)[C@H]1CC=C(C)CC1 [(R)-1-methyl-4-(1-methylethenyl)cyclohexene] + C=C1CC[C@H]2C[C@@H]1C2(C)C
mass density [kg/m3], [2]
Conditions | 283.15 K | 298.15 K | 313.15 K | 328.15 K | 343.15 K | 358.15 K
20000 kPa | 862 ± 1.1 | 851.5 ± 1.1 | 841 ± 1.1 | 830.5 ± 1.1 | 820.1 ± 1.1 | 810.2 ± 1.1
25000 kPa | 864.9 ± 1.1 | 854.5 ± 1.1 | 844.2 ± 1.1 | 833.8 ± 1.1 | 823.7 ± 1.1 | 813.9 ± 1.1
30000 kPa | 867.7 ± 1.1 | 857.6 ± 1.1 | 847.2 ± 1.1 | 837.2 ± 1.1 | 827.3 ± 1.1 | 817.6 ± 1.1
35000 kPa | 870.4 ± 1.1 | 860.9 ± 1.1 | 850.3 ± 1.1 | 840.4 ± 1.1 | 831.1 ± 1.1 | 821.3 ± 1.1
40000 kPa | 873.3 ± 1.2 | 863.4 ± 1.1 | 853.3 ± 1.1 | 843.8 ± 1.1 | 834.6 ± 1.1 | 824.8 ± 1.1
